Measurements from ChEMBL document CHEMBL3112503, “New class of azaheptapyridine FPT inhibitors as potential cancer therapy agents” (Bioorg Med Chem Lett, 2014).
The source made the active and inactive calls. No cut-off for these calls is given here.

Legend:
NIH-H = assay: Inhibition of inhibit anchorage-independent growth of […] NIH-H cells in soft agar by colony forming assay; type: functional, cell-based
[1] = molecular target: Protein farnesyltransferase (Homo sapiens, UniProt P49354+P49356); assay: Inhibition of FTase (unknown origin) assessed as transfer of [H3]farnesyl from [H3]farnesyl pyrophosphate to trichloroacetic acid-precipitable HaRas-CVLS; type: protein-complex assay
[2] = Ratio of IC50 for […] NIH-H cells to IC50 for FTase (unknown origin)
[3] = AUC (0 to 6 hrs) in rat at 10 mg/kg; type: ADME, organism-based; parameters: time < 6 hr, dose 10 mg/kg; conditions: plasma
Mus musculus [4] = assay: Antitumor activity in wap-ras transgenic mouse assessed as tumor growth inhibition and tumor regression administered bid for 4 weeks; type: functional, organism-based
Cytochrome P450 3A4 = Cytochrome P450 3A4 (Homo sapiens, UniProt P08684); assay: Inhibition of CYP3A4 (unknown origin); type: ADME
Cytochrome P450 3A4, sequence (P08684 whole entry): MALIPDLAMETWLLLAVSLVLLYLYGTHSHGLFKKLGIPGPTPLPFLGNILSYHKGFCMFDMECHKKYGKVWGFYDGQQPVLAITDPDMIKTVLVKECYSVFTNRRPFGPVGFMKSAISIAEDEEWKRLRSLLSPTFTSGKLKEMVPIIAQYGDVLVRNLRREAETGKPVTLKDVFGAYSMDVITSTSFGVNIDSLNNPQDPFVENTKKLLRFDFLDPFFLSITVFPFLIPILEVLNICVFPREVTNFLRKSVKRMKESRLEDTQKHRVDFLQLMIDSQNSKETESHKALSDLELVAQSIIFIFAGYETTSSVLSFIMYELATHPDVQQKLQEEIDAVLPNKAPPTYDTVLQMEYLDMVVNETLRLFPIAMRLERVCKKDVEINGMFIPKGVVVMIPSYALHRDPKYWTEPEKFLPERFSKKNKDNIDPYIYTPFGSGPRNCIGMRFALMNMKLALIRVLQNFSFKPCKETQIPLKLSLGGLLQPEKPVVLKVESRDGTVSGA

Mus musculus [5] = assay: Toxicity in wap-ras transgenic mouse assessed as change in body weight at 3 to 40 mg/kg bid for 4 weeks; type: organism-based; parameters: dose 3-40 mg/kg; conditions: in vivo, 672 h
Mus musculus [6] = assay: Antitumor activity in wap-ras transgenic mouse assessed as tumor regression at 25 to 40 mg/kg bid for 4 weeks; type: functional, organism-based
Mus musculus [7] = assay: Antitumor activity in wap-ras transgenic mouse assessed as tumor stasis at 10 mg/kg bid for 4 weeks; type: functional, organism-based; parameters: dose 10 mg/kg
[8] = Cmax in monkey at 25 mg/kg, po; type: ADME, organism-based, Macaca mulatta; parameters: dose 25 mg/kg, route oral; conditions: rhesus monkey, in vivo
Mus musculus [9] = assay: Antitumor activity in wap-ras transgenic mouse assessed as tumor growth inhibition at 3 mg/kg bid for 4 weeks; type: functional, organism-based; parameters: dose 3 mg/kg
[10] = AUC in monkey at 25 mg/kg, po; type: ADME, organism-based, Macaca mulatta; parameters: dose 25 mg/kg, route oral; conditions: rhesus monkey, plasma
[11] = AUC in dog at 25 mg/kg, po; type: ADME, organism-based, Canis lupus familiaris; parameters: dose 25 mg/kg, route oral; conditions: plasma
[12] = Cmax in dog at 25 mg/kg, po; type: ADME, organism-based, Canis lupus familiaris; parameters: dose 25 mg/kg, route oral; conditions: in vivo
[13] = Cmax in mouse at 25 mg/kg, po; type: ADME, organism-based; parameters: dose 25 mg/kg, route oral; conditions: in vivo
[14] = AUC in mouse at 25 mg/kg, po; type: ADME, organism-based; parameters: dose 25 mg/kg, route oral; conditions: plasma
[15] = Cmax in rat at 10 mg/kg, po; type: ADME, organism-based; parameters: dose 10 mg/kg, route oral; conditions: in vivo
[16] = AUC in rat at 10 mg/kg, po; type: ADME, organism-based; parameters: dose 10 mg/kg, route oral; conditions: plasma
[17] = Oral bioavailability in monkey at 5 mg/kg; type: ADME, organism-based, Macaca mulatta; conditions: rhesus monkey, in vivo
[18] = Oral bioavailability in dog at 5 mg/kg; type: ADME, organism-based, Canis lupus familiaris; conditions: in vivo
[19] = Oral bioavailability in mouse at 25 mg/kg; type: ADME, organism-based; conditions: in vivo
[20] = Oral bioavailability in rat at 10 mg/kg; type: ADME, organism-based; conditions: in vivo

**Q.** With `Cn1cncc1[C@](C)(O)C1=Cc2cccnc2[C@@H](N2CCN(C(=O)NC(C)(C)C)CC2)c2ccc(Cl)cc21` as the molecule, how does the IC50 (NIH-H) read?
**A.** The IC50 was 37 nM.

**Q.** What about the IC50 [1] of the same molecule?
**A.** The IC50 was 0.7 nM.

**Q.** Which IC50 (NIH-H) does the source give for `Cn1cncc1[C@](C)(O)C1=Cc2cccnc2[C@@H](N2CCN(C(=O)OC3CCCCC3)CC2)c2ccc(Cl)cc21` here?
**A.** Its IC50 is 6.2 nM.

**Q.** And the IC50 [1]?
**A.** The IC50 was 1.4 nM.

**Q.** With `Cn1cncc1[C@](C)(O)C1=Cc2cccnc2[C@@H](N2CCN(C(N)=O)CC2)c2ccc(Cl)cc21` as the molecule, how does the IC50 (NIH-H) read?
**A.** The IC50 was greater than 100 nM.

**Q.** What about the IC50 [1] of the same molecule?
**A.** The IC50 was greater than 20 nM.

**Q.** Which “Ratio IC50” value [2] does the source give for `Cn1cncc1C(C)(O)[C@@]12C[C@@H]1c1cccnc1[C@@H](N1CCN(C(=O)OC(C)(C)C)CC1)c1ccc(Cl)cc12` (stereo partly specified) here?
**A.** Its value is greater than 30.

**Q.** What about the IC50 (NIH-H) of the same molecule?
**A.** The IC50 was 60 nM.

**Q.** What about the IC50 [1] of the same molecule?
**A.** The IC50 was 1.9 nM.

**Q.** Which results are given for `Cn1cncc1C(C)(O)C1=Cc2cccnc2[C@@H](N2CCN(C(=O)OC(C)(C)C)CC2)c2ccc(Cl)cc21` (mixture of isomers)?
**A.** IC50 (NIH-H): 10 nM; IC50 [1]: 1.8 nM

**Q.** For `CC(C)OC(=O)N1CCN([C@H]2c3ccc(Cl)cc3C([C@@](C)(O)c3cncn3C)=Cc3cccnc32)CC1`, which IC50 (NIH-H) is on record?
**A.** Its IC50 is 10 nM.

**Q.** And the IC50 [1]?
**A.** Its IC50 is 0.6 nM.

**Q.** What does the source list for `Cn1cncc1[C@](C)(O)C1=Cc2cccnc2[C@@H](N2CCN(C(=O)OC(C)(C)C)CC2)c2ccc(Cl)cc21`?
**A.** AUC(0-t) at 6 h [3]: 3.1 µM·h; IC50 (NIH-H): 30 nM; IC50 [1]: 2.6 nM

**Q.** Which IC50 [1] does the source give for `Cn1cncc1C(=O)C1=Cc2cccnc2[C@@H](N2CCN(C(=O)OC(C)(C)C)CC2)c2ccc(Cl)cc21` here?
**A.** Its IC50 is greater than 18 nM.

**Q.** Which results are given for `Cn1cncc1[C@@](C)(O)C1=Cc2cccnc2[C@@H](N2CCN(C(N)=O)CC2)c2ccc(Cl)cc21`?
**A.** IC50 (NIH-H): > 100 nM; IC50 [1]: 0.1 nM

**Q.** For `Cn1cncc1[C@@](C)(O)C1=Cc2cccnc2[C@@H](N2CCN(C(=O)OC3(C)CCCCC3)CC2)c2ccc(Cl)cc21`, which IC50 (NIH-H) is on record?
**A.** Its IC50 is 2 nM.

**Q.** What about the IC50 [1] of the same molecule?
**A.** The IC50 was 5.5 nM.

**Q.** For `Cn1cncc1C(C)(O)[C@]12C[C@H]1c1cccnc1[C@@H](N1CCN(C(=O)OC(C)(C)C)CC1)c1ccc(Cl)cc12` (stereo partly specified), which IC50 (NIH-H) is on record?
**A.** The IC50 was greater than 100 nM.

**Q.** And the IC50 [1]?
**A.** The IC50 was greater than 18 nM.

**Q.** What does the source list for `Cn1cncc1[C@@](C)(O)C1=Cc2cccnc2[C@@H](N2CCN(C(=O)NC3CCCCC3)CC2)c2ccc(Cl)cc21`?
**A.** IC50 (NIH-H): 0.9 nM; IC50 [1]: 0.1 nM

**Q.** What does the source list for `Cn1cncc1[C@](C)(O)C1=Cc2cccnc2[C@@H](N2CCN(C(=O)OC3CCCC3)CC2)c2ccc(Cl)cc21`?
**A.** IC50 (NIH-H): 32 nM; IC50 [1]: 0.6 nM

**Q.** For `Cn1cncc1[C@@](C)(O)C1=Cc2cccnc2[C@@H](N2CCN(C(=O)NC(C)(C)C)CC2)c2ccc(Cl)cc21`, which IC50 (NIH-H) is on record?
**A.** The IC50 was 5 nM.

**Q.** What about the IC50 [1] of the same molecule?
**A.** Its IC50 is 0.9 nM.

**Q.** Which IC50 (NIH-H) does the source give for `Cn1cncc1[C@](C)(O)C1=Cc2cccnc2[C@@H](N2CCN(C(=O)Nc3ccc(C#N)cc3)CC2)c2ccc(Cl)cc21` here?
**A.** Its IC50 is 4 nM.

**Q.** What about the IC50 [1] of the same molecule?
**A.** Its IC50 is 1.8 nM.

**Q.** What does the source list for `Cn1cncc1[C@@](C)(O)C1=Cc2cccnc2[C@@H](N2CCN(C(=O)OC3CCCCC3)CC2)c2ccc(Cl)cc21`?
**A.** IC50 (NIH-H): 3.5 nM; IC50 [1]: 1.7 nM

**Q.** Which IC50 (NIH-H) does the source give for `Cn1cncc1[C@H](O)C1=Cc2cccnc2[C@@H](N2CCN(C(=O)OC(C)(C)C)CC2)c2ccc(Cl)cc21` here?
**A.** Its IC50 is 0.5 nM.

**Q.** What about the IC50 [1] of the same molecule?
**A.** The IC50 was 0.3 nM.

**Q.** With `Cn1cncc1[C@](C)(O)C1=Cc2cccnc2[C@@H](N2CCN(C(=O)OC3(C)CCCCC3)CC2)c2ccc(Cl)cc21` as the molecule, how does the IC50 (NIH-H) read?
**A.** The IC50 was 45 nM.

**Q.** Which results are given for `Cn1cncc1[C@@](C)(O)C1=Cc2cccnc2[C@@H](N2CCN(C(=O)OC(C)(C)C)CC2)c2ccc(Cl)cc21`?
**A.** Activity (Mus musculus [4]): Dose-dependent effect; IC50 (Cytochrome P450 3A4): 300 nM; Activity (Mus musculus [5]): Non-toxic; Activity (Mus musculus [6]): Active; Activity (Mus musculus [7]): Active; Cmax [8]: 700 nM; TGI (Mus musculus [9]): Active; AUC [10]: 3.2 µM·h; AUC [11]: 1.8 µM·h; Cmax [12]: 600 nM; Cmax [13]: 18000 nM; AUC [14]: 82 µM·h; Cmax [15]: 1500 nM; AUC [16]: 8.4 µM·h; bioavailability [17]: 34%; bioavailability [18]: 34%; bioavailability [19]: 34%; bioavailability [20]: 34%; IC50 (NIH-H): 1.3 nM; IC50 [1]: 1.4 nM

**Q.** With `Cn1cncc1[C@@](C)(O)C1=Cc2cccnc2[C@@H](N2CCN(C(=O)OC3CCCC3)CC2)c2ccc(Cl)cc21` as the molecule, how does the IC50 (NIH-H) read?
**A.** The IC50 was 2 nM.

**Q.** What about the IC50 [1] of the same molecule?
**A.** Its IC50 is 0.6 nM.

**Q.** For `CCC(O)(C1=Cc2cccnc2[C@@H](N2CCN(C(=O)OC(C)(C)C)CC2)c2ccc(Cl)cc21)c1cncn1C` (mixture of isomers), which IC50 (NIH-H) is on record?
**A.** Its IC50 is 50 nM.

**Q.** And the IC50 [1]?
**A.** Its IC50 is 5 nM.

**Q.** With `Cn1cncc1[C@@H](O)C1=Cc2cccnc2[C@@H](N2CCN(C(=O)OC(C)(C)C)CC2)c2ccc(Cl)cc21` as the molecule, how does the IC50 [1] read?
**A.** The IC50 was 12 nM.

**Q.** With `Cn1cncc1C(=O)[C@]12C[C@H]1c1cccnc1[C@@H](N1CCN(C(=O)OC(C)(C)C)CC1)c1ccc(Cl)cc12` as the molecule, how does the IC50 (NIH-H) read?
**A.** The IC50 was 6 nM.

**Q.** And the IC50 [1]?
**A.** Its IC50 is 3.2 nM.

**Q.** Which IC50 (NIH-H) does the source give for `CC(C)OC(=O)N1CCN([C@H]2c3ccc(Cl)cc3C([C@](C)(O)c3cncn3C)=Cc3cccnc32)CC1` here?
**A.** Its IC50 is 2 nM.

**Q.** What about the IC50 [1] of the same molecule?
**A.** The IC50 was 0.2 nM.

**Q.** For `Cn1cncc1C(=O)[C@@]12C[C@@H]1c1cccnc1[C@@H](N1CCN(C(=O)OC(C)(C)C)CC1)c1ccc(Cl)cc12`, which IC50 (NIH-H) is on record?
**A.** The IC50 was 8 nM.

**Q.** And the IC50 [1]?
**A.** The IC50 was 3.2 nM.

**Q.** Which IC50 (NIH-H) does the source give for `Cn1cncc1[C@@](C)(O)C1=Cc2cccnc2[C@@H](N2CCN(C(=O)Nc3ccc(C#N)cc3)CC2)c2ccc(Cl)cc21` here?
**A.** The IC50 was 2 nM.

**Q.** What about the IC50 [1] of the same molecule?
**A.** The IC50 was 0.8 nM.

**Q.** What does the source list for `Cn1cncc1[C@](C)(O)C1=Cc2cccnc2[C@@H](N2CCN(C(=O)NC3CCCCC3)CC2)c2ccc(Cl)cc21`?
**A.** IC50 (NIH-H): 1.7 nM; IC50 [1]: 0.4 nM
